Data taken from patent publication US20110218103A1, “Fluoroalkyl-substituted 2-amidobenzimidazoles” (BAYER CROPSCIENCE AG, priority 2010, published 2011).

Test system: Hordeum vulgare (HORVS)
Assay: Drought stress test on crop plants, spray application in greenhouse, visual damage rating
Type: in vivo
Conditions: 25 g/ha, mean of three results
Protocol: Seeds of monocotyledonous and dicotyledonous crop plants were placed in sandy loam in wood-fiber pots, covered with soil and cultivated in a greenhouse under good growth conditions. The test plants were treated at the early leaf stage (BBCH10-BBCH13). To ensure uniform water supply before commencement of stress, the potted plants were supplied with the maximum amount of water immediately beforehand by dam irrigation and, after application, transferred in plastic inserts in order to prevent subsequent, excessively rapid drying. The inventive compounds, formulated in the form of wettable powders (WP), wettable granules (WG), suspension concentrates (SC) or emulsion concentrates (EC), were sprayed onto the green parts of the plants as an aqueous suspension at an equivalent water application rate of 600 l/ha with addition of 0.2% wetting agent (agrotin). Substance application was followed immediately by stress treatment of the plants (cold or drought stress). For cold stress treatment, the plants were kept under the following controlled conditions: Drought stress was induced by gradual drying out under the following conditions: “day”: 14 hours with illumination at 26° C. “night”: 10 hours without illumination at 18° C. The duration of the respective stress phases was guided mainly by the state of the untreated, stressed control plants and thus varies from crop to crop. It was ended (by re-irrigating or transfer to a greenhouse with good growth conditions) as soon as irreversible damage is observed on the untreated, stressed control plants. In the case of dicotyledonous crops, for example oilseed rape and soya, the duration of the drought stress phase was between 3 and 5 days, in the case of monocotyledonous crops, for example wheat, barley or corn, between 6 and 10 days. The duration of the cold stress phase varied between 12 and 14 days. The end of the stress phase was followed by an approx. 5-7-day recovery phase, during which the plants were once again kept under good growth conditions in a greenhouse. In order to rule out any influence of the effects observed by any fungicidal action of the test compounds, it was additionally ensured that the tests proceed without fungal infection and without infection pressure. After the recovery phase had ended, the intensities of damage were rated visually compared to untreated, unstressed controls of the same age (in the case of drought stress) or the same growth stage (in the case of cold stress). The intensity of damage was first assessed as a percentage (100%=plants have died, 0%=like control plants). These values were then used to calculate the efficacy of the test compounds (=percentage reduction in the intensity of damage as a result of substance application) by the following formula: [formula] EF: efficacy (%) DVus: damage value of the untreated, stressed control DVts: damage value of the plants treated with test compound The tables below list mean values in each case from three results of the same test. Effects of selected compounds of the formula (I) under drought stress: HORVS=Hordeum vulgare

**Q.** For `NC(=O)c1cccc2[nH]c(C(F)(F)C(F)(F)C(F)(F)F)nc12` [1-17], which “EF (HORVS), efficacy = percentage reduction in the intensity of damage” value is on record?
**A.** >5%

**Q.** With `NC(=O)c1cccc2[nH]c(C(F)(F)C(F)(F)F)nc12` [1-2, 2-(pentafluoroethyl)-1H-benzimidazole-4-carboxamide] as the molecule, how does the “EF (HORVS), efficacy = percentage reduction in the intensity of damage” value read?
**A.** >5%
